From US10076519B2 (CYTOKINETICS, INC., priority 2010, dated 2018) come the findings set out here.

One assay has as its system rabbit skeletal myofibrils (fast skeletal myofibrils). Briefly: Activation of fast skeletal myofibrils (PUMA assay, PK/LDH-coupled ATPase at pCa25). It is filed as biochemical. The conditions noted are these: AC1.4 determined according to the procedure of Example 39; reported as class symbols. Put shortly: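 ATPase activity of Triton-washed rabbit skeletal myofibrils, roughly 90% fast fibres, tracked by NADH loss at 340 nm through a PK/LDH-coupled ADP-regenerating system. Calcium set to 25% of maximal activity (pCa25), in PIPES 12 mM pH 6.8 with 2 mM MgCl2 and 1 mM DTT; AC1.4 reported.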
Turning to `N#Cc1cccc(C2(CNc3ccc(-c4cccc(C(N)=O)c4)nn3)CCC2)n1`, the “Mean AC1.4” value is on record as “B (B=1-10 uM)”.

In the case of `CC(C)(CNc1ccc(-c2cncc(C#N)c2)nn1)c1ccc(F)cc1` [5-(6-{[2-(4-fluorophenyl)-2-methylpropyl]amino}pyridazin-3-yl)pyridine-3-carbonitrile], the “Mean AC1.4” value is listed as “B (B=1-10 uM)”.

For the compound `CC(C)(CNc1ccc(-c2ccc(F)cc2)nn1)c1ccc(F)cc1` [[2-(4-fluorophenyl)-2-methylpropyl][6-(4-fluorophenyl)pyridazin-3-yl]amine], the “Mean AC1.4” value is “B (B=1-10 uM)”.

Take `Nc1n[nH]c2ccc(-c3ccc(NCC4(c5ccccc5F)CC4)nn3)cc12` [[6-(3-amino(1H-indazol-5-yl))pyridazin-3-yl]{[(2-fluorophenyl)cyclopropyl]meth-yl}amine]: the “Mean AC1.4” value is on record as “A (A=<1 uM)”.

As for `NC(=O)c1cccc(-c2ccc(NCC3(c4ncccc4F)CCC3)nn2)c1`, the “Mean AC1.4” value is reported as “A (A=<1 uM)”.

As to `CC(C)(CNc1ccc(C(=O)N2CCN(C(N)=O)CC2)nn1)c1ccc(F)cc1`, the “Mean AC1.4” value is on record as “D (D=>20 uM)”.

For the compound `CC(C)(CNc1ccc(-c2ccc(N)cc2)nn1)c1ccc(F)cc1` [[6-(4-aminophenyl)pyridazin-3-yl][2-(4-fluorophenyl)-2-methylpropyl]amine], the “Mean AC1.4” value is listed as “A (A=<1 uM)”.

For the compound `Cn1cc(-c2ccc(NCC3(c4ncccc4F)CCC3)nn2)cn1` [{[(3-fluoro(2-pyridyl))cyclobutyl]methyl}[6-(1-methylpyrazol-4-yl)pyridazin-3-yl]amine], the “Mean AC1.4” value was “D (D=>20 uM)”.

`CC(C)(CNc1ccc(C(=O)N[C@@H](Cc2ccccc2)C(N)=O)nn1)c1ccc(F)cc1` [N-((1S)-1-carbamoyl-2-phenylethyl)(6-{[2-(4-fluorophenyl)-2-methylpropyl]amino}pyridazin-3-yl)carboxamide]: the “Mean AC1.4” value is listed as “C (C=10-20 uM)”.

In the case of `CC(C)(CNc1ccc(CO)nn1)c1ccc(F)cc1`, the “Mean AC1.4” value is “D (D=>20 uM)”.

In the case of `Cc1ccc(C(N)=O)cc1-c1ccc(NCC2(c3ncccc3F)CCC2)nn1`, the “Mean AC1.4” value is given as “B (B=1-10 uM)”.

Staying with this assay, now noted: median AC1.4 class, procedure of Example 39.
`NC(=O)c1noc(-c2ccc(NCC3(c4ncccc4F)CCC3)nn2)n1`: the “Mean AC1.4” value is “B (B=1-10 uM)”.

As to “ethyl 2-[6-({[(3-fluoro-2- pyridyl)cyclobutyl]methyl}ami- no)pyridazin-3-yl]-1,3-thiazole-4- carboxylate”, the “Mean AC1.4” value is “D (D=>20 uM)”.

In the case of `O=C1NCc2cc(-c3ccc(NCC4(c5ncccc5F)CCC4)nn3)sc21` [2-[6-({[(3-fluoro-2-pyridyl)cyclobutyl]methyl}ami-no)pyridazin-3-yl]thiopheno[2,3-c]3-pyrrolin-6-one], the “Mean AC1.4” value was “B (B=1-10 uM)”.

Turning to `C[C@H](N)C(=O)NCc1cnc(-c2ccc(NCC3(c4ncccc4F)CCC3)nn2)s1` [(2S)-2-amino-N-({2-[6-({[(3-fluoro(2-pyridyl))cyclobutyl]methyl}ami-no)pyridazin-3-yl](1,3-thiazol-5-yl)}methyl)propanamide], the “Mean AC1.4” value was “A (A=<1 uM)”.

For `NC(=O)c1cccc(-c2ccc(NC3(c4cccc(F)c4)CCC3)nn2)c1`, the “Mean AC1.4” value is reported as “B (B=1-10 uM)”.

As for `O=C(O)c1cnc(-c2ccc(NCC3(c4ccccn4)CCC3)nn2)s1` [2-(6-{[(2-pyridylcyclobutyl)methyl]ami-no}pyridazin-3-yl)-1,3-thiazole-5-carboxylic acid], the “Mean AC1.4” value is listed as “C (C=10-20 uM)”.

Turning to `CC(C)(CNc1ccc(-c2cccc(C(N)=O)c2)nn1)c1ncccc1Cl` [3-(6-{[2-(3-chloro(2-pyridyl))-2-methylpropyl]amino}pyridazin-3-yl)benzamide], the “Mean AC1.4” value is on record as “A (A=<1 uM)”.

Take `NC(=O)c1cccc(-c2ccc(NC[C@]3(c4ncccc4F)C[C@H](F)C3)nn2)c1` [3-[6-({[3-fluoro-1-(3-fluoro(2-pyridyl))cyclobutyl]methyl}ami-no)pyridazin-3-yl]benzamide]: the “Mean AC1.4” value was “A (A=<1 uM)”.

In the case of `NC(=O)[C@H]1C[C@@H]1c1ccc(NCC2(c3ncccc3F)CCC2)nn1`, the “Mean AC1.4” value is given as “D (D=>20 uM)”.

Take `Nc1ncc(-c2ccc(NC3(c4ccc(F)cc4)CCC3)nn2)cn1` [[6-(2-aminopyrimidin-5-yl)pyridazin-3-yl][(4-fluorophenyl)cyclobutyl]amine]: the “Mean AC1.4” value was “B (B=1-10 uM)”.

On to `NC(=O)c1cccc(-c2ccc(NC3(c4ccc(F)cc4)CCC3)nn2)c1`, for which the “Mean AC1.4” value was “A (A=<1 uM)”.

On to `COC(=O)c1cccc(-c2ccc(NC[C@]3(c4ncccc4F)C[C@H](F)C3)nn2)c1` [methyl 3-[6-({[3-fluoro-1-(3-fluoro(2-pyridyl))cyclobutyl]methyl}ami-no)pyridazin-3-yl]benzoate], for which the “Mean AC1.4” value was “B (B=1-10 uM)”.

Regarding `NC(=O)CNc1ncc(-c2ccc(NCC3(c4ncccc4F)CCC3)nn2)cn1`, the “Mean AC1.4” value is “C (C=10-20 uM)”.

The assay is the same for the next values; noted with them: median AC1.4 reported as class; procedure of Example 39.
As for `Cn1cc(NC(=O)c2ccc(NCC3(c4ncccc4F)CCC3)nn2)nc1C(N)=O` [4-{[6-({[(3-fluoro(2-pyridyl))cyclobutyl]methyl}ami-no)pyridazin-3-yl]carbonylamino}-1-methylimidazole-2-carboxamide], the “Mean AC1.4” value is given as “D (D=>20 uM)”.

With `Cc1cc(NCC2(c3ncccc3F)CCC2)nnc1-c1ncc(C(N)=O)s1` [2-[6-({[(3-fluoro(2-pyridyl))cyclobutyl]methyl}amino)-4-methylpyridazin-3-yl]-1,3-thiazole-5-carboxamide], the “Mean AC1.4” value is on record as “A (A=<1 uM)”.

As for `CN(Cc1nccs1)C(=O)c1ccc(NCC2(c3ncccc3F)CCC2)nn1` [[6-({[(3-fluoro(2-pyridyl))cyclobutyl]methyl}ami-no)pyridazin-3-yl]-N-methyl-N-(1,3-thiazol-2-ylmethyl)carboxamide], the “Mean AC1.4” value is given as “D (D=>20 uM)”.

In the case of `CC(C)(C(N)=O)c1cnc(-c2ccc(NCC3(c4ncccc4F)CCC3)nn2)s1` [2-{2-[6-({[(3-fluoro(2-pyridyl))cyclobutyl]methyl}ami-no)pyridazin-3-yl](1,3-thiazol-5-yl)}-2-methylpropanamide], the “Mean AC1.4” value was “D (D=>20 uM)”.

Turning to `O=C(NC1CC1)c1ccc(F)c(-c2ccc(NC[C@]3(c4ncccc4F)C[C@H](F)C3)nn2)c1` [N-cyclopropyl{4-fluoro-3-[6-({[3-fluoro-1-(3-fluoro(2-pyridyl))cyclobutyl]methyl}ami-no)pyridazin-3-yl]phenyl}carboxamide], the “Mean AC1.4” value was “A (A=<1 uM)”.

For the compound `CS(=O)(=O)N1CCN(Cc2cnc(-c3ccc(NCC4(c5ncccc5F)CCC4)nn3)s2)CC1` [1-({2-[6-({[(3-fluoro(2-pyridyl))cyclobutyl]methyl}ami-no)pyridazin-3-yl](1,3-thiazol-5-yl)}methyl)-4-(methylsulfonyl)piperazine], the “Mean AC1.4” value is on record as “D (D=>20 uM)”.

With `CC(C)(CNc1ccc(-c2cn3c(C(N)=O)csc3n2)nn1)c1ncccc1Cl`, the “Mean AC1.4” value is “A (A=<1 uM)”.

`CNC(=O)c1cc(-c2ccc(NC[C@]3(c4ncccc4F)C[C@H](F)C3)nn2)c(F)cc1O` [{4-fluoro-5-[6-({[3-fluoro-1-(3-fluoro(2-pyridyl))cyclobutyl]methyl}ami-no)pyridazin-3-yl]-2-hydroxyphenyl}-N-methylcarboxamide]: the “Mean AC1.4” value is given as “A (A=<1 uM)”.

`O=C(NC1CNC1)c1cccc(-c2ccc(NC[C@]3(c4ncccc4F)C[C@H](F)C3)nn2)c1` [N-azetidin-3-yl{3-[6-({[3-fluoro-1-(3-fluoro(2-pyridyl))cyclobutyl]methyl}ami-no)pyridazin-3-yl]phenyl}carboxamide]: the “Mean AC1.4” value is “B (B=1-10 uM)”.
